{"source": "ChEMBL document CHEMBL1136638", "about": "“N-Benzoyl amino acids as LFA-1/ICAM inhibitors 1: amino acid structure-activity relationship” (Bioorg Med Chem Lett, 2003)", "data": [{"molecular_target": "Intercellular adhesion molecule (ICAM-1), Integrin alpha-L/beta-2 (Homo sapiens, UniProt P05107+P05362+P20701)", "sequence (P20701 whole entry)": "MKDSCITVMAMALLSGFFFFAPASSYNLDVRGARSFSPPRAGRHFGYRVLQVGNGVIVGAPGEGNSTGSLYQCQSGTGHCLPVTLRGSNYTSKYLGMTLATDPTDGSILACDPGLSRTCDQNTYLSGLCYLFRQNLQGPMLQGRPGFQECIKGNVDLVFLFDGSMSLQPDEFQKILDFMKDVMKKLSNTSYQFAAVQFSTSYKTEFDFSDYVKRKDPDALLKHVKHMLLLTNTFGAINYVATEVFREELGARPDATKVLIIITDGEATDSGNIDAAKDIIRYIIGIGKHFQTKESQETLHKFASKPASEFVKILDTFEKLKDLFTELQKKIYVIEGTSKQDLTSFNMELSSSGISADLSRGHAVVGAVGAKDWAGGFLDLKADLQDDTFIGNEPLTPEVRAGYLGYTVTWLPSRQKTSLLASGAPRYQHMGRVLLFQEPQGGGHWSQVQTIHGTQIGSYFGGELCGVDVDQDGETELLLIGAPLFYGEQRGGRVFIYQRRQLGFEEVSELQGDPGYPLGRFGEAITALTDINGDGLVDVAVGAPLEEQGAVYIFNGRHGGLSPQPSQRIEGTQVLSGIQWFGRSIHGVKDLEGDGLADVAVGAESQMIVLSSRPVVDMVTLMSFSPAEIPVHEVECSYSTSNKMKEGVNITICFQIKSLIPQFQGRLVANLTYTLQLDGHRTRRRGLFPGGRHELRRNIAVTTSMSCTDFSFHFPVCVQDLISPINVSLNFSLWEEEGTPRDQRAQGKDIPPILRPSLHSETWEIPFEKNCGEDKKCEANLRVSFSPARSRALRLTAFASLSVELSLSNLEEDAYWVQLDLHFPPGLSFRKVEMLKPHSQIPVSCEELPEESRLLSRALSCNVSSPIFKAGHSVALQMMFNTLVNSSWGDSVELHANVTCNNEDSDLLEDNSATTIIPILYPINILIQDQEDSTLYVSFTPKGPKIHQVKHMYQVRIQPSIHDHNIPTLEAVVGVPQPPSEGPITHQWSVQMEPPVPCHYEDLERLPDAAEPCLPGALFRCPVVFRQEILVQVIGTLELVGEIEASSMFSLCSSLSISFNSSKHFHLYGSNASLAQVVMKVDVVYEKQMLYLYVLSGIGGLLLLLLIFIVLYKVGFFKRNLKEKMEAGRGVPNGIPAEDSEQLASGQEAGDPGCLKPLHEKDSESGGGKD", "sequence (P05362 whole entry)": "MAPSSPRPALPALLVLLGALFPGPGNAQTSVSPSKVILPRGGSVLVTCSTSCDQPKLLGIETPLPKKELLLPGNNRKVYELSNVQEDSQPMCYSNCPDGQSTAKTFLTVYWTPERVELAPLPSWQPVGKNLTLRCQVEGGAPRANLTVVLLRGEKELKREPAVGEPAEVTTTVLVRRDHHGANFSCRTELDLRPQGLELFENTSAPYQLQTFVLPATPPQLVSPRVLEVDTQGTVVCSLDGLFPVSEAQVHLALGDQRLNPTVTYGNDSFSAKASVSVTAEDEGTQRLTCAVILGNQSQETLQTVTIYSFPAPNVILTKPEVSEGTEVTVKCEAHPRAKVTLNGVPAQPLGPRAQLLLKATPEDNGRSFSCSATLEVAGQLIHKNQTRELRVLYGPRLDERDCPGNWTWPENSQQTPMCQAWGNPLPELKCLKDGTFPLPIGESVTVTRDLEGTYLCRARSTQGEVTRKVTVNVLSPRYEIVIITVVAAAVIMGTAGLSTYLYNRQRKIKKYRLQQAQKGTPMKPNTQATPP", "sequence (P05107 whole entry)": "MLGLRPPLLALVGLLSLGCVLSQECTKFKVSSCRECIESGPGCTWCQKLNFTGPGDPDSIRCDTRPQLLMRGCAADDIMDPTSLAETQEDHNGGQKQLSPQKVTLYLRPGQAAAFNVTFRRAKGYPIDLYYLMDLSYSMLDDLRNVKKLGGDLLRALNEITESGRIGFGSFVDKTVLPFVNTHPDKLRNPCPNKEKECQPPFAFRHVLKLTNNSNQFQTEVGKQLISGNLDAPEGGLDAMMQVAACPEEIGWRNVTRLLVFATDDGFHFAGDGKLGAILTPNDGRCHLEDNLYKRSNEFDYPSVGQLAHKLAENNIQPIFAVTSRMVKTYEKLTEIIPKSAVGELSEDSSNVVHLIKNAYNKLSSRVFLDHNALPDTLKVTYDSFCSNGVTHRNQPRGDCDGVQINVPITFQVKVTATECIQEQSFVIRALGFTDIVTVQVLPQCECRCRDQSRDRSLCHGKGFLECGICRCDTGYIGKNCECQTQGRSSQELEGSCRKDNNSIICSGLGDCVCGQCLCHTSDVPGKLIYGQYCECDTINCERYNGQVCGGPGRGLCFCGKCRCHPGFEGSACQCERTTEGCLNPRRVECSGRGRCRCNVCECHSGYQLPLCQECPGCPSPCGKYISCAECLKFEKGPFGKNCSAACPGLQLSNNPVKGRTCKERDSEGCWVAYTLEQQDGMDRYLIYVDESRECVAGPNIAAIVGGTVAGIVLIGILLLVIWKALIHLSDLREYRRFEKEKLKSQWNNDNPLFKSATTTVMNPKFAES", "assay": "Concentration required to inhibit binding of ICAM-1 to LFA-1 (Leukocyte function-associated antigen-1), evaluated ELISA", "type": "protein-complex assay", "units": {"IC50": "µM"}, "values": [{"compound": "O=C(N[C@@H](Cc1cnc[nH]1)C(=O)O)c1ccccc1Br", "IC50": 0.75}, {"compound": "CSCC[C@H](NC(=O)c1ccccc1Br)C(=O)O", "IC50": 7.46}, {"compound": "N#Cc1ccc(C[C@H](NC(=O)c2ccccc2Br)C(=O)O)cc1", "IC50": 36.8}, {"compound": "O=C(N[C@@H](Cc1cccs1)C(=O)O)c1ccccc1Br", "IC50": 5.5}, {"compound": "O=C(O)[C@@H]1CCCN1C(=O)c1ccccc1Br", "IC50": "> 1000"}, {"compound": "O=C(N[C@@H](Cc1c[nH]c2ccccc12)C(=O)NO)c1ccccc1Br", "IC50": 140}, {"compound": "O=C(N[C@@H](CCc1ccccc1)C(=O)O)c1ccccc1Br", "IC50": 5.09}, {"compound": "C[C@@H](NC(=O)c1ccccc1Br)C(=O)O", "IC50": 57.5}, {"compound": "O=C(N[C@@H](Cc1c[nH]c2ncccc12)C(=O)O)c1ccccc1Br", "IC50": 63.8}, {"compound": "C[C@@H](O)[C@H](NC(=O)c1ccccc1Br)C(=O)O", "IC50": 3.84}, {"compound": "O=C(NCCc1c[nH]c2ccccc12)c1ccccc1Br", "IC50": "> 1000"}, {"compound": "O=C(N[C@@H](Cc1c[nH]c2ccc(O)cc12)C(=O)O)c1ccccc1Br", "IC50": 24.2}, {"compound": "O=C(N[C@@H](Cc1c[nH]c2ccc(F)cc12)C(=O)O)c1ccccc1Br", "IC50": 10.8}, {"compound": "O=C(N[C@H](Cc1ccccc1)C(=O)O)c1ccccc1Br", "IC50": 280}, {"compound": "O=C(N[C@@H](Cc1c[nH]c2cc(F)ccc12)C(=O)O)c1ccccc1Br", "IC50": 7.64}, {"compound": "O=C(N[C@@H](Cc1c[nH]c2ccccc12)C(=O)O)c1ccccc1Br", "IC50": 1.7}, {"compound": "O=C(N[C@@H](Cc1cccc2ccccc12)C(=O)O)c1ccccc1Br", "IC50": 15.9}, {"compound": "O=C(O)C[C@H](NC(=O)c1ccccc1Br)C(=O)O", "IC50": "> 200"}, {"compound": "O=C(N[C@H](Cc1cccc2ccccc12)C(=O)O)c1ccccc1Br", "IC50": "> 200"}, {"compound": "O=C(N[C@@H](CO)C(=O)O)c1ccccc1Br", "IC50": 6.15}, {"compound": "O=C(N[C@H](Cc1ccc2ccccc2c1)C(=O)O)c1ccccc1Br", "IC50": 243}, {"compound": "COc1ccc2[nH]cc(C[C@H](NC(=O)c3ccccc3Br)C(=O)O)c2c1", "IC50": 2.77}, {"compound": "NC(=O)C[C@H](NC(=O)c1ccccc1Br)C(=O)O", "IC50": 1.08}, {"compound": "O=C(N[C@H](Cc1c[nH]c2ccccc12)C(=O)O)c1ccccc1Br", "IC50": 76.6}, {"compound": "O=C(O)CC[C@H](NC(=O)c1ccccc1Br)C(=O)O", "IC50": 30.1}, {"compound": "NC(=O)[C@H](Cc1c[nH]c2ccccc12)NC(=O)c1ccccc1Br", "IC50": "> 1000"}, {"compound": "COC(=O)[C@H](Cc1c[nH]c2ccccc12)NC(=O)c1ccccc1Br", "IC50": "> 1000"}, {"compound": "NC(=O)CC[C@H](NC(=O)c1ccccc1Br)C(=O)O", "IC50": 1.77}, {"compound": "CC[C@H](C)[C@H](NC(=O)c1ccccc1Br)C(=O)O", "IC50": 106}, {"compound": "O=C(N[C@@H](Cc1ccc2ccccc2c1)C(=O)O)c1ccccc1Br", "IC50": 24.4}, {"compound": "O=C(N[C@@H](Cc1ccc(-c2ccccc2)cc1)C(=O)O)c1ccccc1Br", "IC50": 50.5}, {"compound": "O=C(O)CNC(=O)c1ccccc1Br", "IC50": 314}, {"compound": "O=C(N[C@@H](Cc1c[nH]c2ccc(Br)cc12)C(=O)O)c1ccccc1Br", "IC50": 28.4}, {"compound": "CC(C)[C@H](NC(=O)c1ccccc1Br)C(=O)O", "IC50": 11.3}, {"compound": "O=C(N[C@@H](CS)C(=O)O)c1ccccc1Br", "IC50": 4.26}, {"compound": "C[C@H](NC(=O)c1ccccc1Br)C(=O)O", "IC50": 6.64}, {"compound": "NCCCC[C@H](NC(=O)c1ccccc1Br)C(=O)O", "IC50": 1.21}, {"compound": "N=C(N)NCCC[C@H](NC(=O)c1ccccc1Br)C(=O)O", "IC50": 2.71}, {"compound": "CC(C)C[C@H](NC(=O)c1ccccc1Br)C(=O)O", "IC50": 54.3}, {"compound": "O=C(N[C@@H](Cc1ccccc1)C(=O)O)c1ccccc1Br", "IC50": 4.89}, {"compound": "O=C(N[C@H](CO)C(=O)O)c1ccccc1Br", "IC50": 72.6}, {"compound": "O=C(N[C@@H](Cc1ccc(O)cc1)C(=O)O)c1ccccc1Br", "IC50": 1.09}]}]}
